In series [1] the target is T1, airway epithelial sodium currents (epithelial sodium channel, ENaC) (UniProt A0A8I3MKE6+A0A8I3Q679+Q95165).
T1 sequence (A0A8I3MKE6 1-646): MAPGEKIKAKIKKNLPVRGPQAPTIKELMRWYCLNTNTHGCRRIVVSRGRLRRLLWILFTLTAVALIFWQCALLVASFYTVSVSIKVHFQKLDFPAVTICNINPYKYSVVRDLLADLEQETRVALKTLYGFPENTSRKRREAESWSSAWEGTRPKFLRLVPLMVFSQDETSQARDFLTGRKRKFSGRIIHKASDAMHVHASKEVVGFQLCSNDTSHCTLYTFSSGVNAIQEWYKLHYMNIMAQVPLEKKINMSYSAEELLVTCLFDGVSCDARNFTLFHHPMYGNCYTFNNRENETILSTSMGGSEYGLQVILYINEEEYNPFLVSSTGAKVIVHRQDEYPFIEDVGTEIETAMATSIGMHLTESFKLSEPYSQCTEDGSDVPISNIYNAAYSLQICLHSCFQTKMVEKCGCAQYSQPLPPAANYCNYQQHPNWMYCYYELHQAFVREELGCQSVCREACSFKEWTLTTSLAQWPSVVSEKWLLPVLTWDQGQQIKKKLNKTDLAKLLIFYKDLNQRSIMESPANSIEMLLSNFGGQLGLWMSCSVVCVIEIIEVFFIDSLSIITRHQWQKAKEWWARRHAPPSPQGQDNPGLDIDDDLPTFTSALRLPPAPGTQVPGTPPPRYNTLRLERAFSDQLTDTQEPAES
T1 sequence (A0A8I3Q679 1-649): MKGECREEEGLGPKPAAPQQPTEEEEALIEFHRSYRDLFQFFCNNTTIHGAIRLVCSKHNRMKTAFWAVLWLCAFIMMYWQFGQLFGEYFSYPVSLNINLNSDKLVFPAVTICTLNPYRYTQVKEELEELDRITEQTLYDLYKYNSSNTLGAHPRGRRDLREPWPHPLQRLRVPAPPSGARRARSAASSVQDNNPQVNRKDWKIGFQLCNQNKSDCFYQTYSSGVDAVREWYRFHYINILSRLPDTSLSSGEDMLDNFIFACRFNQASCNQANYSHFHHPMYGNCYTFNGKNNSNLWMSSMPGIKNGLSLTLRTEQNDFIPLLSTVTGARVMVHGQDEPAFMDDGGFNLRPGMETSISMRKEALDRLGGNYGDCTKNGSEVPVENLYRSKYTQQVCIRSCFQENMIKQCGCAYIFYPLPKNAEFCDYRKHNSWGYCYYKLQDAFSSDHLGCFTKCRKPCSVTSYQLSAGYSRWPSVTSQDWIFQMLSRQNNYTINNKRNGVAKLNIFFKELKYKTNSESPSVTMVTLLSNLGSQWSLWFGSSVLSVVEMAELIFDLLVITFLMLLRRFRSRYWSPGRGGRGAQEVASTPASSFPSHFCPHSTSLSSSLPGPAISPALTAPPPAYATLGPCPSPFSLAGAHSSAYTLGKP
T1 sequence (Q95165 1-641): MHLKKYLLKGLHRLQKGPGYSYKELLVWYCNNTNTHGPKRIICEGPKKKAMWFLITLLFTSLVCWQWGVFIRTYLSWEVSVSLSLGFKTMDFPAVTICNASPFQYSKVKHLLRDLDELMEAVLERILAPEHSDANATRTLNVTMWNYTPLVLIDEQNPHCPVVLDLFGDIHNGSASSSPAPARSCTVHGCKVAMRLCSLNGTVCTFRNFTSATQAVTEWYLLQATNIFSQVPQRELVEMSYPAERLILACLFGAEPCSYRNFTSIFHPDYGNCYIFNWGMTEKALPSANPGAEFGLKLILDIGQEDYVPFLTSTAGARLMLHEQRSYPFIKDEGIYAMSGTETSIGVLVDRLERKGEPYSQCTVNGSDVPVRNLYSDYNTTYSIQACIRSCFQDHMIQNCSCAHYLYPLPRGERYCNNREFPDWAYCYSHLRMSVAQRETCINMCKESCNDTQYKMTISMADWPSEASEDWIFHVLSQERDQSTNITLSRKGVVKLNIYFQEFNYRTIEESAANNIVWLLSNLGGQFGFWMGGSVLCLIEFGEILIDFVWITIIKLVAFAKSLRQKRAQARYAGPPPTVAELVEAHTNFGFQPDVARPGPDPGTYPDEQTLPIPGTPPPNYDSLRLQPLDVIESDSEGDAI
Nature of the series: Sodium channel blocking activity: short circuit current (ISC) in airway epithelial monolayers in Ussing chambers. Conditions: for IC50: read-out: Potency of Sodium Channel Blockade (IC50), lumenal addition, airway epithelial monolayers (human, dog, sheep or rodent cells, not specified).
Experimental: One assay used to assess mechanism of action and/or potency of the compounds of the present invention involves the determination of lumenal drug inhibition of airway epithelial sodium currents measured under short circuit current (ISC) using airway epithelial monolayers mounted in Ussing chambers. Cells obtained from freshly excised human, dog, sheep or rodent airways are seeded onto porous 0.4 micron Snapwell™ Inserts (CoStar), cultured at air-liquid interface (ALI) conditions in hormonally defined media, and assayed for sodium transport activity (ISC) while bathed in Krebs Bicarbonate Ringer (KBR) in Ussing chambers. […] All drugs are prepared in dimethyl sulfoxide as stock solutions at a concentration of 1×10^−2 M and stored at 20° C. […] After the maximal concentration (5×10^−5 M) is administered, the lumenal bath is exchanged three times with fresh, drug-free KBR solution, and the resultant ISC measured after each wash for approximately 5 minutes in duration. Reversibility is defined as the percent return to the baseline value for sodium current after the third wash. All data from the voltage clamps are collected via a computer interface and analyzed off-line.
Dose-effect relationships for all compounds are considered and analyzed by the Prism 3.0 program.

Series [2] has as its system Bronchial cells. Nature of the series: Apical disappearance assay (epithelial absorption). It counts as in vitro ADME. The note with it: for Epithelial Uptake Rate: apical surface, initial concentration 10 μM. The protocol:
Bronchial cells (dog, human, sheep, or rodent cells) are seeded at a density of 0.25×10^6/cm^2 on a porous Transwell-Col collagen-coated membrane with a growth area of 1.13 cm^2 grown at an air-liquid interface in hormonally defined media that promotes a polarized epithelium. From 12 to 20 days after development of an air-liquid interface (ALI) the cultures are expected to be >90% ciliated, and mucins will accumulate on the cells. To ensure the integrity of primary airway epithelial cell preparations, the transepithelial resistance (Rt) and transepithelial potential differences (PD), which are indicators of the integrity of polarized nature of the culture, are measured. Human cell systems are preferred for studies of rates of absorption from apical surfaces. […] A series of samples (5 μl volume per sample) is collected at various time points, including 0, 5, 20, 40, 90 and 240 minutes. Concentrations are determined by measuring intrinsic fluorescence of each sodium channel blocker using a Fluorocount Microplate Flourometer or HPLC. Quantitative analysis employs a standard curve generated from authentic reference standard materials of known concentration and purity. Data analysis of the rate of disappearance is performed using nonlinear regression, one phase exponential decay (Prism V 3.0).

Series [3] relates to mouse corneas. Nature of the series: Confocal microscopy of drug penetration in mouse corneas. The note with it: one hour after application to corneal epithelium, 37° C. (FIG. 2). The protocol:
Corneal cells were labeled using calcein-AM dye by incubating with corneas for 45 minutes at 37° C. in DMEM media. […] Serial x-y images were obtained one hour post-drug addition by confocal microscopy. […] Pharmacological Effects and Mechanism of Action of the Drug in Animals

The test system of series [4] is primary human airway epithelial cells. The series can be described thus: Confocal microscopy assay of amiloride congener uptake, airway epithelial cells. The note with it: 10 uM apical, 60 minute incubation (FIG. 1). It counts as cell-based. The protocol:
FIG. 1. […] Benzamil or Compound 2 (10 uM each) were added to the apical compartment of primary human airway epithelial cells. After a 60 minute incubation, the compounds were visualized by confocal microscopy.
Virtually all amiloride-like molecules fluoresce in the ultraviolet range. This property of these molecules may be used to directly measure cellular update using x-z confocal microscopy. […] Serial x-z images are obtained with time and the magnitude of fluorescence accumulating in the cellular compartment is quantitated and plotted as a change in fluorescence versus time.
Primary HBE cells were placed in an apparatus designed to position transwell membrane supports on a confocal microscope stage (Leica, Wetzlar, Germany). The glycocalyx and cilia were labeled with 3 μM wheat germ agglutinin-fluorescein (Molecular Probes, Eugene, Oreg.) for 45 mm at 37° C. to visualize the apical domain of HBE cell cultures. The autofluorescence of the cells was acquired prior to apical compound addition. Images were acquired with a 63× water immersion lens in the x-z plane. Benzamil was added to the mucosal compartment (10 μM; 350 μl), and images were recorded serially from 0 to 5 mm.

For orientation: IC50 means the midpoint of a concentration-inhibition curve. Take `N=C(NCCCCc1ccc(OCCN(CCCc2cccc3ccccc23)C[C@H](O)[C@@H](O)[C@H](O)[C@H](O)CO)cc1)NC(=O)c1nc(Cl)c(N)nc1N` [Compound 6]: in series [1], the 50% inhibitory concentration (IC50) came out at 5.9 nM and the “Fold Increase in Potency (Relative to Amiloride)” value was 186.

As for `N=C(NCCCCc1ccc(OCCN(CCCc2ccccc2)C[C@H](O)[C@@H](O)[C@H](O)[C@H](O)CO)cc1)NC(=O)c1nc(Cl)c(N)nc1N` [Compound 5], in series [2], the “Epithelial Uptake Rate” value is 0.2 nM/cm^2/min and the “Fold Decrease in Apical Absorption (Relative to Amiloride)” value (“Fold Decrease … (Relative to Amiloride)” for short) turned out to be 10.0. In series [1], the 50% inhibitory concentration (IC50) was determined as 6.6 nM and the “Fold Increase in Potency (Relative to Amiloride)” value came to 118.

As for `N=C(NCCCCc1ccc(OCC(O)CO)cc1)NC(=O)c1nc(Cl)c(N)nc1N` (stereo not drawn) [Compound 1], in series [1], the IC50 came out at 7.4 nM and the “Fold Increase in Potency (Relative to Amiloride)” value came to 105.

Regarding `N=C(N)NCCCC[C@@H](N)C(=O)NCCCN(CCCNC(=O)[C@H](N)CCCCNC(=N)N)CCOc1ccc(CCCCNC(=N)NC(=O)c2nc(Cl)c(N)nc2N)cc1` [Compound 3], in series [3], the “Corneal penetration seen by confocal microscopy” value is “remains associated with the apical (epithelial) surface”. Moreover, in series [1], the IC50 is 3.2 nM and the “Fold Increase in Potency (Relative to Amiloride)” value was determined as 244.

Turning to `N=C(N)NC(=O)c1nc(Cl)c(N)nc1N` [Amiloride, reference compound], the “Epithelial Uptake Rate” value in series [2] turned out to be 2 nM/cm^2/min. Also, the “Corneal penetration seen by confocal microscopy” value in series [3] is “can fully penetrate the cornea”.

As to `NC(=Nc1ccccc1)NC(=O)c1nc(Cl)c(N)nc1N` [Phenamil, reference compound], in series [2], the “Epithelial Uptake Rate” value is 9.0 nM/cm^2/min and the “Fold Decrease … (Relative to Amiloride)” value stood at 0.2. In addition, in series [1], the half-maximal inhibitory concentration (IC50) is 116 nM and the “Fold Increase in Potency (Relative to Amiloride)” value is recorded as 6.5.

As for `NC(=NCc1ccccc1)NC(=O)c1nc(Cl)c(N)nc1N` [Benzamil], the “Epithelial Uptake Rate” value in series [2] amounted to 6.6 nM/cm^2/min. Further, the “Fold Decrease … (Relative to Amiloride)” value in series [2] was 0.3. Further, the “Cellular penetration/uptake seen by confocal microscopy” value in series [4] is on record as “largely concentrated inside cells”; in series [4] (listed as benzamil) it was “rapidly taken up by the cells”. The half-maximal inhibitory concentration (IC50) in series [1] came to 46 nM.

Regarding `N=C(N)NCCOc1ccc(CCCCNC(=N)NC(=O)c2nc(Cl)c(N)nc2N)cc1` [Compound 2], in series [2], the “Epithelial Uptake Rate” value is recorded as 0.2 nM/cm^2/min and the “Fold Decrease … (Relative to Amiloride)” value was found to be 10.0. Moreover, the “Cellular penetration/uptake seen by confocal microscopy” value in series [4] was “concentrated on the exterior cell surface”. Besides, in series [1], the IC50 was found to be 10.2 nM and the “Fold Increase in Potency (Relative to Amiloride)” value was 77.

The record behind these values is patent US9849129B2, “Sodium channel blockers for skin disorders” (PARION SCIENCES, INC., priority 2015, dated 2017).
